Patent EP0142075A2, “Purine derivatives, their preparation, and medicaments containing these compounds” (Dr. Karl Thomae GmbH, priority 1983, dated 1985)
Where two headings read alike, the source gives them in different places.

Tests used:
Mäusen = assay: Acute toxicity (orientating), single oral dose in mice; conditions: in vivo, po, 300 mg/kg
Protocol: (§1) Die akute Toxizität der zu untersuchenden Substanzen wurde orientierend an Gruppen von je 10 Mäusen nach oraler Gabe einer Einzeldosis von 300 mg/kg bestimmt (Beobachtungszeit: 14 Tage): […]

[1] = as above; conditions: mouse, in vivo, read-out: Orientierend akute Toxizität
Protocol: as §1

[2] = mice, groups of 10, single oral dose of 300 mg/kg, observation time 14 days

## C#CCOc1ccc(-c2nc3ncncc3[nH]2)c(OC)c1 [Substanz A, 8-(2-Methoxy-4-propargyloxyphenyl)-purin]
Mäusen
  Tieren gestorben: 0 von 10
[1]; [2]
  LD50 at 336 h: > 300 mg/kg

## COC(=O)COc1ccc(-c2nc3ncncc3[nH]2)c(OC)c1 [Substanz B, 8-(2-Methoxy-4-methoxycarbonylmethoxyphenyl)-purin]
Mäusen
  Tieren gestorben: 0 von 10
[1]; [2]
  LD50 at 336 h: > 300 mg/kg

## COc1cc(OCC#N)ccc1-c1nc2cncnc2[nH]1 [Substanz C, 8-(2-Methoxy-4-cyanmethoxyphenyl)-purin]
Mäusen
  Tieren gestorben: > 300 mg/kg (O von 10 Tieren gestorben)
[1]; po, 300 mg/kg
  LD50 at 336 h: > 300 mg/kg
